Source: patent publication US8450300B2 (priority 2009, dated 2013)
“Also recorded” adds a separate entry of the source. Like-named read-outs stand apart in the source and are kept apart here.

How the values were obtained:
[1] = Single oral dose bioavailability study, fed/fasted crossover, plasma fusidic acid; details: human, in vivo, 500 mg, 500 mg single oral dose; for AUC(0-t): read-out: AUC0-t, geometric mean (CV %); for AUC(0-inf): read-out: AUCinf, geometric mean (CV %); for Cmax: read-out: Cmax, geometric mean (CV %); for half-life: read-out: t1/2, arithmetic mean ± SD (converted); for AUC: read-out: total exposure (AUC)
Experimental: This was a single-center, Phase 1, double-blind, randomized, 3 period, fed/fasted crossover bioequivalence study designed to evaluate the relative bioavailability and safety and tolerability of a single oral dose of CEM-102 500 mg compared to Fucidin® 500 mg in healthy subjects.
Subjects were randomized in equal numbers to the 4 treatment sequences (Table 3).
Study Period 1, 2, and 3 (Days 1, 15, and 29): One dose of study drug 500 mg (2×250 mg) of CEM-102 or Fucidin® was given at 8:00 AM (˜30 minutes). On Day 1 of Study Periods 1 and 2 (Days 1 and 15), subjects fasted overnight for at least 10 hours prior to dosing. On Day 1 of Study Period 3 (Day 29), subjects were given a high fat caloric meal which was to be entirely consumed within 30 minutes prior to study drug administration.
Blood samples for assay of plasma concentrations were collected on Days 1, 15 and 29 at pre-dose and 0.5, 1, 1.5, 2, 2.5, 3, 3.5, 4, 6, 8, 12, 16, 24, 36, and 48 hours after the dose. Plasma concentrations were assayed at MicroConstants, Inc. in San Diego, Calif. using a validated liquid chromatography with dual tandem mass spectrometry (LC/MS/MS) method with a lower limit of quantitation (LLOQ) of 20.0 ng/mL

[2] = Dose escalation study, single/multiple dose and loading dose regimens: pharmacokinetics; assay type: in vivo, human; details: for concentration at 7 days: after 7 days of dosing; for concentration at 7 days / concentration at 24 h: read-out: mean trough plasma concentration
Experimental: (§1) The pharmacokinetics (PK), safety, and tolerability of single and multiple doses of CEM-102 (sodium fusidate) were evaluated in a single-center, Phase 1, double-blind, randomized, placebo-controlled, dose-escalating study in 32 healthy adult subjects enrolled in 4 dosage groups (550, 1100, 1650, and 2200 mg). In each cohort, six subjects were to receive CEM-102 and two were to receive placebo in a single dose (Period 1) and then multiple doses BID for a total of 11 doses over 5.5 days (Period 2). The two dosing periods were separated by a seven-day washout period between the single dose in Period 1 and the first dose in Period 2.
(§2) Dosing proceeded as planned for Cohorts 1 to 3; however, Cohort 4 received only the single dose of 2200 mg (Period 1), because dose-limiting gastrointestinal intolerance was observed after multiple doses of 1650 mg BID in Cohort 3. Period 2 for Cohort 4 evaluated an initial loading dose regimen, and a second loading dose regimen was evaluated in an additional cohort (Cohort 5) per a protocol amendment.
(§3) The protocol was amended for assessment of the safety, tolerability, and PK of front-loaded dose regimens comprised of a higher dose of CEM-102 on Day 1 followed by lower doses for the subsequent 6.5 days. All loading dose regimens employed multiple doses lower than the maximum tolerated dose (MTD) established in the first part of the study (1650 mg administered as multiple doses).
(§4) The loading dose regimens assessed were 1100 mg BID on Day 1 and 550 mg BID on the following 6.5 days in Period 2 of Cohort 4 and 1650 mg BID on Day 1 and 825 mg BID on the following 6.5 days in Cohort 5.

[3] = Dose escalation study, single/multiple dose and loading dose regimens: safety and tolerability; assay type: in vivo
Experimental: as §1, §2, §3, §4

[4] = human, in vivo, 550 mg, Period 1 Day 1, single dose 550 mg
[5] = human, in vivo, 1100 mg BID loading dose then 550 mg BID
[6] = human, in vivo, 1100 mg, Period 1 Day 1, single dose 1100 mg
[7] = human, in vivo, 1650 mg BID loading dose then 825 mg BID
[8] = human, in vivo, 1650 mg, Period 1 Day 1, single dose 1650 mg
[9] = human, in vivo, 2200 mg, Period 1 Day 1, single dose 2200 mg
[10] = after the single dose of 2200 mg

CC(=O)O[C@H]1C[C@@]2(C)[C@@H](C[C@@H](O)[C@H]3[C@@]4(C)CC[C@@H](O)[C@@H](C)[C@@H]4CC[C@@]32C)/C1=C(\CCC=C(C)C)C(=O)O [CEM-102, Sodium fusidate] gave an AUC(0-t) ([1]; fasting) of 300 µg·h/mL, an AUC(0-inf) ([1]; fasting) of 318 µg·h/mL and a Cmax ([1]; fasting) of 27.4 µg/mL. The half-life ([1]; fasting) was 11.8 ± 2.2 h, the AUC ([1]; fasting) was roughly 318 µg·h/mL and the AUC(0-t) ([1]; fed) was 269 µg·h/mL. The AUC(0-inf) ([1]; fed) was 285 µg·h/mL, the Cmax ([1]; fed) was 21.2 µg/mL and the half-life ([1]; fed) was 11.5 ± 2.75 h. For the same molecule, the AUC ([1]; fed) was roughly 285 µg·h/mL, the “AUC(0-12) accumulation ratio” value ([2]; Mean AUC(0-12) Day 6/Mean AUC(0-inf) Day 1, 550 mg) was 2.61 and the “AUC(0-12) accumulation ratio” value ([2]; Mean AUC(0-12) Day 6/Mean AUC(0-inf) Day 1, 1100 mg) was 2.30. For the same molecule, the “AUC(0-12) accumulation ratio” value ([2]; Mean AUC(0-12) Day 6/Mean AUC(0-inf) Day 1, 1650 mg) was 1.83, the Cmax accumulation ratio ([2]; Mean Cmax Day 6/Mean Cmax Day 1, 550 mg) was 3.89 and the Cmax accumulation ratio ([2]; Mean Cmax Day 6/Mean Cmax Day 1, 1100 mg) was 3.89. For the same molecule, the Cmax accumulation ratio ([2]; Mean Cmax Day 6/Mean Cmax Day 1, 1650 mg) was 3.18, the “Kel, apparent first-order terminal elimination rate constant, mean” value ([2]; Period 1 Day 1, single dose 550 mg) was 0.0564 h⁻¹ and the “Kel, apparent first-order terminal elimination rate constant, mean” value ([2]; Period 1 Day 1, single dose 1100 mg) was 0.0617 h⁻¹. The “Kel, apparent first-order terminal elimination rate constant, mean” value ([2]; Period 1 Day 1, single dose 1650 mg) was 0.0498 h⁻¹, the “Kel, apparent first-order terminal elimination rate constant, mean” value ([2]; Period 1 Day 1, single dose 2200 mg) was 0.0500 h⁻¹ and the “Kel, mean” value ([2]; Period 2 Day 6, 550 mg BID) was 0.0554 h⁻¹. The “Kel, mean” value ([2]; Period 2 Day 6, 1100 mg BID) was 0.0404 h⁻¹, the “Kel, mean” value ([2]; Period 2 Day 6, 1650 mg BID) was 0.0199 h⁻¹ and the Tmax ([2]; human, in vivo, 550 mg) was 3 h. For the same molecule, the Cmax [2, 4] was 33.4 µg/mL, the Vd/F [2, 4] was 28.4 L and the AUC(0-t) ([2]; human, in vivo, 550 mg, Period 1 Day 1, single dose 550 mg, read-out: AUC(0-24), mean) was 242 µg·h/mL. For the same molecule, the half-life ([2]; human, in vivo, 550 mg, Period 1 Day 1, single dose 550 mg, read-out: T1/2, harmonic mean (converted)) was 12.3 h, the Tmax ([2]; human, in vivo, 550 mg, Period 1 Day 1, single dose 550 mg, read-out: Tmax, median) was 2 h and the Vd/F ([2]; human, in vivo, 550 mg, Period 2 Day 6, 550 mg BID) was 9.88 L. The Cmax ([2]; human, in vivo, 550 mg, Period 2 Day 6, 550 mg BID, 11 doses) was 130 µg/mL, the AUC(0-t) ([2]; human, in vivo, 550 mg, Period 2 Day 6, 550 mg BID, read-out: AUC(0-12), mean) was 1150 µg·h/mL and the half-life ([2]; human, in vivo, 550 mg, Period 2 Day 6, 550 mg BID, read-out: T1/2, harmonic mean (converted)) was 12.5 h. The concentration at 7 days [2, 5] was roughly 105 µg/mL, the concentration at 24 h [2, 5] was roughly 74 µg/mL and the Cmax [2, 6] was 72.2 µg/mL. It also gave a Vd/F [2, 6] of 16.9 L, an AUC(0-t) ([2]; human, in vivo, 1100 mg, Period 1 Day 1, single dose 1100 mg, read-out: AUC(0-24), mean) of 844 µg·h/mL and a half-life ([2]; human, in vivo, 1100 mg, Period 1 Day 1, single dose 1100 mg, read-out: T1/2, harmonic mean (converted)) of 11.2 h. It also gave a Vd/F ([2]; human, in vivo, 1100 mg, Period 2 Day 6, 1100 mg BID) of 12.7 L, a Cmax ([2]; human, in vivo, 1100 mg, Period 2 Day 6, 1100 mg BID, 11 doses) of 281 µg/mL and an AUC(0-t) ([2]; human, in vivo, 1100 mg, Period 2 Day 6, 1100 mg BID, read-out: AUC(0-12), mean) of 2530 µg·h/mL. The half-life ([2]; human, in vivo, 1100 mg, Period 2 Day 6, 1100 mg BID, read-out: T1/2, harmonic mean (converted)) was 17.1 h, the Tmax ([2]; human, in vivo, 1650 mg) was 4 h and the concentration at 7 days [2, 7] was roughly 200 µg/mL. For the same molecule, the concentration at 24 h [2, 7] was roughly 150 µg/mL, the Cmax [2, 8] was 102 µg/mL and the Vd/F [2, 8] was 21.1 L. It also gave an AUC(0-t) ([2]; human, in vivo, 1650 mg, Period 1 Day 1, single dose 1650 mg, read-out: AUC(0-24), mean) of 1260 µg·h/mL, a Vd/F ([2]; human, in vivo, 1650 mg, Period 2 Day 6, 1650 mg BID) of 34.8 L and a Cmax ([2]; human, in vivo, 1650 mg, Period 2 Day 6, 1650 mg BID, 11 doses) of 324 µg/mL. For the same molecule, the AUC(0-t) ([2]; human, in vivo, 1650 mg, Period 2 Day 6, 1650 mg BID, read-out: AUC(0-12), mean) was 3290 µg·h/mL, the half-life ([2]; human, in vivo, 1650 mg, Period 2 Day 6, 1650 mg BID, read-out: T1/2, harmonic mean (converted)) was 31.6 h and the “CL/F, mean” value ([2]; human, in vivo, 2200 mg) was 0.924 L/h. For the same molecule, the half-life ([2]; human, in vivo, 2200 mg) was 13.9 h, the Cmax [2, 9] was 128 µg/mL and the Vd/F [2, 9] was 19.2 L. The AUC(0-t) ([2]; human, in vivo, 2200 mg, Period 1 Day 1, single dose 2200 mg, read-out: AUC(0-24), mean) was 1690 µg·h/mL, the Tmax ([2]; human, in vivo, 2200 mg, Period 1 Day 1, single dose 2200 mg, read-out: Tmax, median) was 6 h and the AUC(0-inf) ([2]; human, in vivo, Period 1 Day 1, single dose 550 mg) was 441 µg·h/mL. For the same molecule, the AUC(0-inf) ([2]; human, in vivo, Period 1 Day 1, single dose 1100 mg) was 1100 µg·h/mL, the AUC(0-inf) ([2]; human, in vivo, Period 1 Day 1, single dose 1650 mg) was 1800 µg·h/mL and the AUC(0-inf) ([2]; human, in vivo, Period 1 Day 1, single dose 2200 mg) was 2650 µg·h/mL. For the same molecule, the “maximum tolerated dose (MTD)” value ([3]; administered as multiple doses) was 1650 mg, the subjects reporting nausea ([3]; after multiple doses, all cohorts) was 9 subjects and the “changes in physical examinations, vital signs, ECGs, or laboratory parameters” value ([3]; after single doses) was “no clinically significant changes”. The “subjects with nausea alone” value [3, 10] was 2, the “subjects with nausea and vomiting” value [3, 10] was 1 subject and the safety and tolerability ([3]; doses up to 1650 mg BID for 5.5 days) was “safe and generally well tolerated”. For the same molecule, the “Adverse Event (treatment-emergent, per subject and day)” value ([3]; loading dose regimen 1100/550 mg) was “Urinary; also recorded: Nausea; also recorded: Constipation”, the tolerability ([3]; loading dose regimens 1100/550 mg and 1650/825 mg, total 7.5 days) was “very well tolerated” and the “Adverse Event (treatment-emergent, per subject and day)” value ([3]; multiple dose 550 mg BID cohort, blinded listing) was “Nausea; also recorded: Epigastric pain; also recorded: Dizziness; also recorded: Elevated BP; also recorded: Headache; also recorded: Tachycardia; also recorded: Pharyngitis; also recorded: Hoarseness; also recorded: Sore throat”. For the same molecule, the “Adverse Event (treatment-emergent, per subject and day)” value ([3]; multiple dose 1100 mg BID cohort, blinded listing) was “Heartburn; also recorded: Constipation; also recorded: Skin Irritation; also recorded: Nausea; also recorded: Dizziness; also recorded: Viral URI”, the subjects reporting nausea ([3]; multiple doses 550 mg BID) was 2 subjects and the subjects reporting nausea ([3]; multiple doses 1100 mg BID) was 2 subjects. For the same molecule, the subjects reporting nausea ([3]; multiple doses 1650 mg BID) was 5 subjects, the subjects with vomiting ([3]; multiple doses 1650 mg BID) was 4 subjects and the “Adverse Event (treatment-emergent, per subject and day)” value ([3]; single dose 1650 mg) was “None”. For the same molecule, the “Adverse Event (treatment-emergent, per subject and day)” value ([3]; single dose 2200 mg) was “Nausea; also recorded: Vomiting; also recorded: Abdomen distention”, the “gastrointestinal AEs” value ([3]; single dose, 550, 1100 or 1650 mg cohorts) was “no gastrointestinal AEs” and the tolerability ([3]; single doses up to 2200 mg) was “safe and well tolerated”. The “changes in physical examinations, vital signs, ECGs, or laboratory parameters” value ([3]; single doses up to 2200 mg, multiple doses up to 1650 mg for 5.5 days, or loading dose regimens for 7.5 days) was “no clinically significant changes”, the “overall safety and tolerability” value ([3]; whole study) was “safe and generally well tolerated” and the “serious or life-threatening adverse events” value ([3]; whole study) was “No serious or life-threatening adverse events”.
